Experimental data as given in ChEMBL document CHEMBL2046330, “Structure-based design of novel benzoxazinorifamycins with potent binding affinity to wild-type and rifampin-resistant mutant Mycobacterium tuberculosis RNA polymerases” (J Med Chem, 2012).
In brackets after ≈: the same amount, converted by molar mass.

How the values were obtained:
[1] = Inhibition of Mycobacterium tuberculosis wild type RNA polymerase by rolling circle transcription assay in the absence of sigmaA factor
[2] = Drug uptake in BALB/c mouse lung at 10mg/kg, po administered qd for 5 days; format: ADME, organism-based; conditions: read-out: Drug uptake
[3] = Tmax in BALB/c mouse at 10 mg/kg, po administered as single dose; format: ADME, organism-based; parameters: dose 10 mg/kg, route oral; conditions: in vivo
Blood [4] = assay: Drug uptake in BALB/c mouse blood at 10 mg/kg, po administered qd for 5 days; format: ADME, organism-based; parameters: dose 10 mg/kg, route oral; conditions: in vivo, 120 h
[5] = system: Mycobacterium tuberculosis; assay: microbe, parasite or virus in culture; conditions: H37Rv, 168 h
Description: Antitubercular activity against Mycobacterium tuberculosis H37Rv in aerobic conditions after 7 days by microplate-based alamar blue assay

Mus musculus = assay: Ratio of Cmax in BALB/c mouse at 10 mg/kg, po administered qd for 5 days to Cmax in BALB/c mouse at 10 mg/kg, po administered as single dose; format: ADME, organism-based; conditions: in vivo, 120 h
[6] = Apparent plasma half life in BALB/c mouse at 10 mg/kg, po administered qd for 5 days; format: ADME, organism-based; parameters: dose 10 mg/kg, route oral; conditions: read-out: t1/2(app) (converted)
[7] = Metabolic stability in human microsomes assessed as compound remaining after 30 mins; format: ADME, Microsome; conditions: read-out: Stability
[8] = Metabolic stability in mouse microsomes assessed as compound remaining after 30 mins; format: ADME, Microsome; conditions: read-out: Stability
[9] = Half life in mouse microsomes; format: ADME, Microsome
Blood [10] = assay: Drug uptake in BALB/c mouse blood at 10 mg/kg, po administered as single dose; format: ADME, organism-based; parameters: dose 10 mg/kg, route oral; conditions: in vivo, BLD = below limit of detection
[11] = Inhibition of Mycobacterium tuberculosis wild type RNA polymerase by rolling circle transcription assay in the presence of sigmaA factor
[12] = Selectivity index, ratio of cytotoxicity against human DPX2 cells to IC50 for Mycobacterium wild type RNA polymerase; format: toxicity, cell-based; conditions: read-out: Selectivity Index
[13] = Cmax in BALB/c mouse at 10 mg/kg, po administered qd for 5 days; format: ADME, organism-based; parameters: dose 10 mg/kg, route oral; conditions: in vivo
[14] = Tmax in BALB/c mouse at 10 mg/kg, po administered qd for 5 days; format: ADME, organism-based; parameters: dose 10 mg/kg, route oral; conditions: in vivo
[15] = T>MIC in BALB/c mouse at 10 mg/kg, po administered qd for 5 days; format: functional
[16] = system: Mycobacterium tuberculosis; assay: microbe, parasite or virus in culture; conditions: H37Rv, 264 h
Description: Antitubercular activity against Mycobacterium tuberculosis H37Rv in anaerobic conditions after 11 days by luminescnece-based low-oxygen recovery assay

[17] = Cmax in BALB/c mouse at 10 mg/kg, po administered as single dose; format: ADME, organism-based; parameters: dose 10 mg/kg, route oral; conditions: in vivo
[18] = Cytotoxicity against human DPX2 cells expressing PXR assessed as decrease in cell viability at >6.25 uM after 24 hrs; format: ADME, cell-based; conditions: dpx2, 24 h
[19] = Half life in human microsomes; format: ADME, Microsome
PXR (NR1I2) [20] = molecular target: T1, PXR (NR1I2) (Homo sapiens, UniProt O75469); assay: Activation of PXR in human DPX2 cells at 6.25 uM after 24 hrs by luciferase reporter gene assay relative to control; format: cell-based; conditions: read-out: FC
T1 sequence (O75469 whole entry): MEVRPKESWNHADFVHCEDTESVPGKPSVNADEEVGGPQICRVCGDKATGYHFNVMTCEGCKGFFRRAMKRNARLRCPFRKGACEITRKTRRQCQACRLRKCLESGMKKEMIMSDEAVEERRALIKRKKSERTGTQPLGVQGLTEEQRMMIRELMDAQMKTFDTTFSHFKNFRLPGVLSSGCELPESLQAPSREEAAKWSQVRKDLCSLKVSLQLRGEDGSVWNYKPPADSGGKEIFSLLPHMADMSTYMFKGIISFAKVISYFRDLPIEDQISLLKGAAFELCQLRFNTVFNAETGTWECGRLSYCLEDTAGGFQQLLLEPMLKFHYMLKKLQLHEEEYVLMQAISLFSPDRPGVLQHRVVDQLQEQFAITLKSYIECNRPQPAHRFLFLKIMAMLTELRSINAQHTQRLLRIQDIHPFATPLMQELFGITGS

[21] = Cytotoxicity against human DPX2 cells expressing PXR assessed as decrease in cell viability at 25 uM after 24 hrs; format: ADME, cell-based; conditions: dpx2, 24 h
PXR (NR1I2) [22] = molecular target: T1, PXR (NR1I2); assay: Activation of PXR in human DPX2 cells after 24 hrs by luciferase reporter gene assay relative to control; format: cell-based; conditions: read-out: FC
[23] = molecular target: T2, Nuclear receptor subfamily 1 group I member 2 (Homo sapiens, UniProt O75469); assay: Activation of PXR in human DPX2 cells after 24 hrs by luciferase reporter gene assay; format: cell-based
T2 sequence (O75469 whole entry): T1 sequence (O75469 whole entry)

PXR (NR1I2) [24] = molecular target: T1, PXR (NR1I2); assay: Activation of PXR in human DPX2 cells at 100 uM after 24 hrs by luciferase reporter gene assay relative to control; format: cell-based; conditions: read-out: FC
[25] = Half life in human; format: ADME, organism-based; conditions: in vivo
[26] = molecular target: T2, Nuclear receptor subfamily 1 group I member 2; assay: Activation of PXR in human DPX2 cells at <100 uM after 24 hrs by luciferase reporter gene assay; format: cell-based; conditions: dpx2, 24 h
[27] = Cytotoxicity against human DPX2 cells expressing PXR assessed as decrease in cell viability at 100 uM after 24 hrs relative to control; format: ADME, cell-based; conditions: dpx2, 24 h

`CCN(CC)CCOc1cccc2oc3c4c(=O)c5c(O)c(C)c6c(c5c-3nc12)C(=O)[C@@](C)(O/C=C/[C@H](OC)[C@@H](C)[C@@H](OC(C)=O)[C@H](C)[C@H](O)[C@H](C)[C@@H](O)[C@@H](C)/C=C/C=C(/C)C(=O)N4)O6` gave an IC50 [1] of under 10 nM, a concentration at 120 h [2] of 400 nM and a Tmax [3] of 1 h. For the same compound, the Drug uptake (Blood [4]) was “Active”, the MIC90 [5] was 0.02 µM (≈ 0.018 µg/mL) and the Ratio (Mus musculus) was 100. For the same compound, the half-life [6] was 1 h, the remaining at 0.5 h [7] was 68% and the remaining at 0.5 h [8] was 86%. For the same compound, the half-life [9] was 2.35 h, the Drug uptake (Blood [10]) was “BLD” and the IC50 [11] was under 10 nM. For the same compound, the selectivity ratio [12] was 1000, the Cmax [13] was 1740 nM and the Tmax [14] was 2 h. The “T>MIC” value [15] was 4 h, the MIC90 [16] was 0.37 µM (≈ 0.333 µg/mL) and the Cmax [17] was 18.5 nM. For the same compound, the Activity [18] was “Toxic”, the half-life [19] was 0.9 h and the fold induction at 24 h, 6.25 µM (PXR (NR1I2) [20]) was 3.

For `CO[C@H]1/C=C/O[C@@]2(C)Oc3c(C)c(O)c4c(=O)c(c5oc6cccc(OCCCCN7CCN(CCn8ccnc8)CC7)c6nc-5c4c3C2=O)NC(=O)/C(C)=C\C=C\[C@H](C)[C@H](O)[C@@H](C)[C@@H](O)[C@@H](C)[C@H](OC(C)=O)[C@@H]1C`, the IC50 [1] was under 10 nM, the MIC90 [5] was 0.08 µM (≈ 0.0828 µg/mL) and the IC50 [11] was under 10 nM. The selectivity ratio [12] was 1000, the MIC90 [16] was 0.35 µM (≈ 0.362 µg/mL) and the Activity [18] was “Toxic”. It also gave a fold induction at 24 h, 6.25 µM (PXR (NR1I2) [20]) of 3.

With `CO[C@H]1/C=C/O[C@@]2(C)Oc3c(C)c(O)c4c(=O)c(c5oc6cccc(OCCCCN7CCN(C(=O)Cn8ccnc8)CC7)c6nc-5c4c3C2=O)NC(=O)/C(C)=C\C=C\[C@H](C)[C@H](O)[C@@H](C)[C@@H](O)[C@@H](C)[C@H](OC(C)=O)[C@@H]1C` the Activity [21] was “Toxic”, the IC50 [1] was under 10 nM and the fold induction at 24 h (PXR (NR1I2) [22]) was 5.9. The MIC90 [5] was 0.07 µM (≈ 0.0734 µg/mL), the IC50 [11] was under 10 nM and the EC50 [23] was 5500 nM. It also gave an MIC90 [16] of 0.4 µM (≈ 0.42 µg/mL).

`NNC(=O)c1ccncc1` [ISONIAZID] showed an MIC90 [5] of 0.24 µM (≈ 0.0329 µg/mL) and an MIC90 [16] of over 128 µM.

`COc1c(N2C[C@@H]3CCCN[C@@H]3C2)c(F)cc2c(=O)c(C(=O)O)cn(C3CC3)c12` [MOXIFLOXACIN] showed an MIC90 [5] of 0.46 µM (≈ 0.185 µg/mL).

In the case of `O=[N+]([O-])c1cn2c(n1)OC[C@@H](OCc1ccc(OC(F)(F)F)cc1)C2` [PRETOMANID], the MIC90 [16] is reported as 2.53 µM (≈ 0.909 µg/mL).

`CO[C@H]1/C=C/O[C@@]2(C)Oc3c(C)c(O)c4c(=O)c(c5oc6cc(N7CCN(CC(C)C)CC7)cc(O)c6nc-5c4c3C2=O)NC(=O)/C(C)=C\C=C\[C@H](C)[C@H](O)[C@@H](C)[C@@H](O)[C@@H](C)[C@H](OC(C)=O)[C@@H]1C` [RIFALAZIL] gave a fold induction at 24 h, 100 µM (PXR (NR1I2) [24]) of 2, an IC50 [1] of 11.5 nM and a half-life [25] of 60 h. It also gave an MIC90 [5] of under 0.004 µM, a remaining at 0.5 h [7] of 73% and a remaining at 0.5 h [8] of 67%. For the same compound, the half-life [9] was 0.883 h, the Activity [26] was “Not Active” and the IC50 [11] was under 10 nM. The “fold change (FC)” value [27] was 2, the MIC90 [16] was under 0.017 µM and the half-life [19] was 1.08 h.

Work on `CO[C@H]1/C=C/O[C@@]2(C)Oc3c(C)c(O)c4c(O)c(c(/C=N/N5CCN(C)CC5)c(O)c4c3C2=O)NC(=O)/C(C)=C\C=C\[C@H](C)[C@H](O)[C@@H](C)[C@@H](O)[C@@H](C)[C@H](OC(C)=O)[C@@H]1C` [RIFAMPIN] yielded an MIC90 [5] of 0.13 µM (≈ 0.107 µg/mL) and an MIC90 [16] of 0.46 µM (≈ 0.379 µg/mL).

Work on `CN[C@@H]1[C@H](O[C@H]2[C@H](O[C@H]3[C@H](O)[C@@H](O)[C@H](N=C(N)N)[C@@H](O)[C@@H]3N=C(N)N)O[C@@H](C)[C@]2(O)C=O)O[C@@H](CO)[C@H](O)[C@H]1O` [STREPTOMYCIN] yielded an MIC90 [5] of 0.46 µM (≈ 0.268 µg/mL).
